Measured values published in patent publication US10344025B2, “GLS1 inhibitors for treating disease” (Board of Regents, The University of Texas System, priority 2014, dated 2019).

Key:
[1] = target: purified recombinant human GAC (GLS1) (Homo sapiens (Human), UniProt O94925); test: GLS1 Enzymatic Activity Assay (dual-coupled enzymatic assay, resorufin/Amplex UltraRed readout); assay type: biochemical;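 note: glutamate from GAC coupled via glutamate oxidase and peroxidase to resorufin, read as fluorescence (ex 530, em 590 nm) kinetically or at 20 min, four-parameter logistic IC50 fit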
A549 cells = test: Proliferation Assay (A549 viability, Cell Titer Fluor, 72 hours); assay type: cell-based; conditions: Homo sapiens, A549, 72 h
Summary of the method: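 Cell Titer Fluor fluorescence after 72 h compound treatment (0.5% DMSO, 37 °C, 5% CO2) of A549 cells plated 24 h earlier at 1000/well. Four-parameter logistic fitting gave IC50.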

Chain of purified recombinant human GAC (GLS1) (O94925 other isoform, or with tags, fused parts or gaps): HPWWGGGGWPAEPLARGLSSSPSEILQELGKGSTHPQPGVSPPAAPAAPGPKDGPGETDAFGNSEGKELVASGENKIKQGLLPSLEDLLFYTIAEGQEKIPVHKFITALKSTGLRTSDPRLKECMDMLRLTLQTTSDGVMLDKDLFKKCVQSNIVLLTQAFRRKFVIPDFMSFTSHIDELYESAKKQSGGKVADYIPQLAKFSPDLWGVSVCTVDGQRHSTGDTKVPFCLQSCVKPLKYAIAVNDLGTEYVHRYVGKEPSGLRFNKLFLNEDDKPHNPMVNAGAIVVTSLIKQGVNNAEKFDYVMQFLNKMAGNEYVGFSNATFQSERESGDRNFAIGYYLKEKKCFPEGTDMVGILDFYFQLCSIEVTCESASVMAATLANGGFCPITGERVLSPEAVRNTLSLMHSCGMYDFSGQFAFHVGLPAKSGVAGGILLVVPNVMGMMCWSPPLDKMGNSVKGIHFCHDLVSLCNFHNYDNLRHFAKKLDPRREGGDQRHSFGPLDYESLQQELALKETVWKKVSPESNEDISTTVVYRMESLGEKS

Row | Structure (SMILES) | IC50 [1] [nM] | EC50 (A549 cells) [nM]
1 | O=C(NCC(F)(F)F)c1cn(CC(F)CCc2nnc(C(=O)NCc3cncc(C(F)(F)F)c3)s2)nn1 (stereo not shown) [Example 506, 5-(3-fluoro-4-{4-[(2,2,2-trifluoroethyl)carbamoyl]-1H-1,2,3-triazol-1-yl}butyl)-N-{[5-(trifluoromethyl)pyridin-3-yl]methyl}-1,3,4-thiadiazole-2-carboxamide] | 100 to 500 | 100 to 500
2 | O=C(CN1CC(F)(F)C1)Nc1cn(CC(F)CCn2cc(C(=O)NCc3ncccc3F)nn2)nn1 (stereo not shown) [Example 410, 1-(4-{4-[2-(3,3-difluoroazetidin-1-yl)acetamido]-1H-1,2,3-triazol-1-yl}-3-fluorobutyl)-N-[(3-fluoropyridin-2-yl)methyl]-1H-1,2,3-triazole-4-carboxamide] | 500 to 5000 | 500 to 5000
3 | CNC(=O)c1cn(CCC(F)Cn2cc(C(=O)NCc3cc(OC(F)(F)F)ccc3F)nn2)nn1 (stereo not shown) [Example 153, 1-{3-fluoro-4-[4-({[2-fluoro-5-(trifluoromethoxy)phenyl]methyl}carbamoyl)-1H-1,2,3-triazol-1-yl]butyl}-N-methyl-1H-1,2,3-triazole-4-carboxamide] | < 100 | 100 to 500
4 | CNC(=O)c1cn(CCCCc2ccc(NC(=O)Cc3cc(-c4ccccc4OC(F)(F)F)ccn3)nn2)nn1 [Example 207, N-methyl-1-(4-(6-(2-(4-(2-(trifluoromethoxy)phenyl)pyridin-2-yl)acetamido)pyridazin-3-yl)butyl)-1H-1,2,3-triazole-4-carboxamide] | < 100 | < 100
5 | CNC(=O)c1cn(CCCCc2ccc(NC(=O)CN3CCCCC3=O)nn2)nn1 [Example 214, N-methyl-1-(4-(6-(2-(2-oxopiperidin-1-yl)acetamido)pyridazin-3-yl)butyl)-1H-1,2,3-triazole-4-carboxamide] | 100 to 500 | > 5000
6 | O=C(Cc1cc(OC(F)(F)F)ccc1F)Nc1cn(CCCCn2cc(C(=O)NCc3ncccc3F)nn2)nn1 [Example 382, 1-[4-(4-{2-[2-fluoro-5-(trifluoromethoxy)phenyl]acetamido} 1H-1,2,3-triazol-1-yl)butyl]-N-[(3-fluoropyridin-2-yl)methyl]-1H-1,2,3-triazole-4-carboxamide] | < 100 | 100 to 500
7 | O=C(Cc1cc(OC(F)(F)F)ccc1F)Nc1cn(CC(F)CCn2cc(C(=O)NCc3ccccn3)nn2)nn1 (stereo not shown) [Example 375, 1-[3-fluoro-4-(4-{2-[2-fluoro-5-(trifluoromethoxy)phenyl]acetamido}-1H-1,2,3-triazol-1-yl)butyl]-N-(pyridin-2-ylmethyl)-1H-1,2,3-triazole-4-carboxamide] | < 100 | < 100
8 | O=C(Cc1ccccn1)Nc1nnc(CC[C@@H](F)Cn2cc(C(=O)NCc3cc(OC(F)(F)F)ccc3F)nn2)s1 [Example 198, (R)-1-(2-fluoro-4-(5-(2-(pyridin-2-yl)acetamido)-1,3,4-thiadiazol-2-yl)butyl)-N-(2-fluoro-5-(trifluoromethoxy)benzyl)-1H-1,2,3-triazole-4-carboxamide] | < 100 | < 100
9 | O=C(NCc1cc(C(F)(F)F)ccn1)c1cn(CCCCn2cc(C(=O)N[C@H](CO)c3ccccc3)nn2)nn1 [Example 101, 1-[4-(4-{[(1S)-2-hydroxy-1-phenylethyl]carbamoyl}-1H-1,2,3-triazol-1-yl)butyl]-N-{[4-(trifluoromethyl)pyridin-2-yl]methyl}-1H-1,2,3-triazole-4-carboxamide] | 500 to 5000 | 500 to 5000
10 | CNC(=O)c1nnc(CCC(F)Cn2cc(C(=O)NCc3cc(C(F)(F)F)ccn3)nn2)s1 (stereo not shown) [Example 503, 5-{3-fluoro-4-[4-({[4-(trifluoromethyl)pyridin-2-yl]methyl}carbamoyl)-1H-1,2,3-triazol-1-yl]butyl}-N-methyl-1,3,4-thiadiazole-2-carboxamide] | 100 to 500 | 500 to 5000
11 | O=C(NCc1cc(C(F)(F)F)ccn1)c1cn(CCCCc2ccc(NC(=O)C3CC3)nn2)nn1 [Example 177, 1-[4-(6-cyclopropaneamidopyridazin-3-yl)butyl]-N-{[4-(trifluoromethyl)pyridin-2-yl]methyl}-1H-1,2,3-triazole-4-carboxamide] | < 100 | 100 to 500
12 | Cc1ccnc(CNC(=O)c2cn(CCC(F)Cn3cc(C(=O)NCc4cc(C(F)(F)F)ccn4)nn3)nn2)c1 (stereo not shown) [Example 159, 1-[2-fluoro-4-(4-{[(4-methylpyridin-2-yl)methyl]carbamoyl}-1H-1,2,3-triazol-1-yl)butyl]-N-{[4-(trifluoromethyl)pyridin-2-yl]methyl}-1H-1,2,3-triazole-4-carboxamide] | < 100 | 100 to 500
13 | Cc1ccc(CC(=O)Nc2cn(CC(F)CCn3cc(C(=O)NCc4cc(OC(F)(F)F)ccc4F)nn3)nn2)cn1 (stereo not shown) [Example 343, 1-(3-fluoro-4-{4-[2-(6-methylpyridin-3-yl)acetamido]-1H-1,2,3-triazol-1-yl}butyl)-N-{[2-fluoro-5-(trifluoromethoxy)phenyl]methyl}-1H-1,2,3-triazole-4-carboxamide] | < 100 | < 100
14 | O=C(NCc1cccc(C2CC2)c1)c1cn(CCC(F)Cn2cc(C(=O)NCc3cc(C4CC4)ccn3)nn2)nn1 (stereo not shown) [Example 129, N-[(3-cyclopropylphenyl)methyl]-1-[4-(4-{[(4-cyclopropylpyridin-2-yl)methyl]carbamoyl}-1H-1,2,3-triazol-1-yl)-3-fluorobutyl]-1H-1,2,3-triazole-4-carboxamide] | < 100 | < 100
15 | CNC(=O)c1cn(C[C@H](F)CCc2ccc(NC(=O)Cc3cn(-c4cccc(OC(F)(F)F)c4)cn3)nn2)nn1 [Example 270, (R)-1-(2-fluoro-4-(6-(2-(1-(3-(trifluoromethoxy)phenyl)-1H-imidazol-4-yl)acetamido)pyridazin-3-yl)butyl)-N-methyl-1H-1,2,3-triazole-4-carboxamide] | < 100 | < 100
16 | O=C(CC1CCCC1)Nc1cn(CCCCn2cc(C(=O)NCC3CCCC3)nn2)nn1 [Example 288, 1-{4-[4-(2-cyclopentylacetamido)-1H-1,2,3-triazol-1-yl]butyl}-N-(cyclopentylmethyl)-1H-1,2,3-triazole-4-carboxamide] | 100 to 500 | 500 to 5000
17 | O=C(NCc1cccc(OC(F)(F)F)c1)c1cn(CCC(F)Cn2cc(C(=O)N[C@H](CO)c3ccccc3)nn2)nn1 (stereo partly drawn) [Example 462, 1-{2-fluoro-4-[4-({[3-(trifluoromethoxy)phenyl]methyl}carbamoyl)-1H-1,2,3-triazol-1-yl]butyl}-N-[(1S)-2-hydroxy-1-phenylethyl]-1H-1,2,3-triazole-4-carboxamide] | < 100 | 100 to 500
18 | CCNC(=O)c1cn(CC(F)CCc2nnc(NC(=O)Cc3cccc(OC(F)(F)F)c3)s2)nn1 (stereo not shown) [Example 531, N-ethyl-1-[2-fluoro-4-(5-{2-[3-(trifluoromethoxy)phenyl]acetamido}-1,3,4-thiadiazol-2-yl)butyl]-1H-1,2,3-triazole-4-carboxamide] | < 100 | 100 to 500

Now from value to molecule:

Row | IC50 [1] [nM] | EC50 (A549 cells) [nM] | Structure (SMILES)
19 | 100 to 500 | 500 to 5000 | CNC(=O)c1cn(CCC(F)Cn2cc(C(=O)NCc3cnc4ccccc4c3)nn2)nn1 (stereo not shown) [Example 170, 1-(3-fluoro-4-{4-[(quinolin-3-ylmethyl)carbamoyl]-1H-1,2,3-triazol-1-yl}butyl)-N-methyl-1H-1,2,3-triazole-4-carboxamide]
20 | 100 to 500 | > 5000 | CNC(=O)c1cn(CCC(F)Cn2cc(C(=O)NCc3ccc(C)nc3)nn2)nn1 (stereo not shown) [Example 187, 1-[3-fluoro-4-(4-{[(6-methylpyridin-3-yl)methyl]carbamoyl}-1H-1,2,3-triazol-1-yl)butyl]-N-methyl-1H-1,2,3-triazole-4-carboxamide]
21 | < 100 | 100 to 500 | COc1cccc(CNC(=O)c2cn(CCCCn3cc(C(=O)NCc4cc(C(F)(F)F)ccn4)nn3)nn2)c1 [Example 108, 1-[4-(4-{[(3-methoxyphenyl)methyl]carbamoyl}-1H-1,2,3-triazol-1-yl)butyl]-N-{[4-(trifluoromethyl)pyridin-2-yl]methyl}-1H-1,2,3-triazole-4-carboxamide]
22 | < 100 | < 100 | O=C(NCc1cncc(C(F)(F)F)c1)c1cn(CC(F)CCc2nnc(C(=O)NCc3cc(C(F)(F)F)ccn3)s2)nn1 (stereo not shown) [Example 485, 5-{3-fluoro-4-[4-({[5-(trifluoromethyl)pyridin-3-yl]methyl}carbamoyl)-1H-1,2,3-triazol-1-yl]butyl}-N-{[4-(trifluoromethyl)pyridin-2-yl]methyl}-1,3,4-thiadiazole-2-carboxamide]
23 | < 100 | < 100 | O=C(NCc1cccc(C(F)(F)F)c1)c1cn(CCC(F)Cn2cc(C(=O)NCc3cc(C(F)(F)F)ccn3)nn2)nn1 (stereo not shown) [Example 455, 1-{2-fluoro-4-[4-({[3-(trifluoromethyl)phenyl]methyl}carbamoyl)-1H-1,2,3-triazol-1-yl]butyl}-N-{[4-(trifluoromethyl)pyridin-2-yl]methyl}-1H-1,2,3-triazole-4-carboxamide]
24 | < 100 | < 100 | O=C(Cc1cccc(OC(F)(F)F)c1)Nc1cn(CC(F)CCn2cc(C(=O)NCc3ccc(C(F)(F)F)nc3)nn2)nn1 (stereo not shown) [Example 411, 1-[3-fluoro-4-(4-{2-[3-(trifluoromethoxy)phenyl]acetamido}-1H-1,2,3-triazol-1-yl)butyl]-N-{[6-(trifluoromethyl)pyridin-3-yl]methyl}-1H-1,2,3-triazole-4-carboxamide]
25 | < 100 | < 100 | O=C(Cc1cccc(OC(F)(F)F)c1)Nc1nnc(CCCCn2cc(C(=O)NCc3ccccn3)nn2)s1 [Example 19, N-(pyridin-2-ylmethyl)-1-[4-(5-{2-[3-(trifluoromethoxy)phenyl]acetamido}-1,3,4-thiadiazol-2-yl)butyl]-1H-1,2,3-triazole-4-carboxamide]
26 | 100 to 500 | 500 to 5000 | CNC(=O)c1cn(CCC(F)Cn2cc(C(=O)NCc3ccccc3)nn2)nn1 (stereo not shown) [Example 165, 1-{4-[4-(benzylcarbamoyl)-1H-1,2,3-triazol-1-yl]-3-fluorobutyl}-N-methyl-1H-1,2,3-triazole-4-carboxamide]
